Laboratory results published in ChEMBL document CHEMBL1159339, “Oxygenated analogues of gorgosterol and ergosterol from the soft coral Capnella lacertiliensis” (2003).

Columns and labels:
[1] = test system: Microbotryum violaceum; experiment: Antimicrobial activity against Microbotryum violaceum at 10 ug; format: functional; conditions: read-out: IZ
[2] = biological target: Tyrosine-protein kinase Lck (Homo sapiens) (UniProt P06239); experiment: Inhibition of p56 LCK at 200 ug/ml; design: scale not given: the % may be the effect or the level left
[3] = test system: Aspergillus pseudoglaucus; experiment: Antimicrobial activity against Eurotium repens at 10 ug; format: functional; conditions: read-out: IZ
[4] = test system: Microbotryum violaceum; experiment: Antimicrobial activity against Microbotryum violaceum at 25 ug; format: functional; conditions: read-out: IZ
[5] = test system: Aspergillus pseudoglaucus; experiment: Antimicrobial activity against Eurotium repens at 20 ug; format: functional; conditions: read-out: IZ
[6] = test system: Microbotryum violaceum; experiment: Antimicrobial activity against Microbotryum violaceum at 20 ug; format: functional; conditions: read-out: IZ

Tyrosine-protein kinase Lck (Homo sapiens), sequence (P06239 2-509 limits assumed): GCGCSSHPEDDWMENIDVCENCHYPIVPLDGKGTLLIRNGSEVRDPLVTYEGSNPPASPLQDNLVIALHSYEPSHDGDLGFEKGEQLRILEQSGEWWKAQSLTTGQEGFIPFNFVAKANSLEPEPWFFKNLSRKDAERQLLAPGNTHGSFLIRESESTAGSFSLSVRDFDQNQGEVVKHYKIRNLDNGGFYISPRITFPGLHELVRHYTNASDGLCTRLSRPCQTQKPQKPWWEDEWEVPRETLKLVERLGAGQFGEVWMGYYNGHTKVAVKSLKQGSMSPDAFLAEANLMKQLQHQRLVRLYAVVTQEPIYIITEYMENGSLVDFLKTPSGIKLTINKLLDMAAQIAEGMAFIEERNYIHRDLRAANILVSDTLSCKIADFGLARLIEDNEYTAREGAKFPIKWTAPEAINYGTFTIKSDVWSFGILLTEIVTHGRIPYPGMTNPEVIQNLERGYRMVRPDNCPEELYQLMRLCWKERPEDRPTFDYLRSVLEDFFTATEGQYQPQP

Activity [2] [%] | SMILES | zone of inhibition at 10 µg/disc [1] [mm] | other results
47 | CC(=O)O[C@@H]1[C@H]2[C@@H](CC=C3C[C@@H](O)CC[C@@]32C)[C@@H]2CC(O)[C@H]([C@H](C)CC[C@H](C)C(C)C)[C@@]2(C)[C@@H]1O (some centres undefined) | 3 | zone of inhibition at 10 µg/disc [3]: 2 mm
– | CC(=O)O[C@@H]1[C@H](O)[C@H]2[C@@H](CC=C3C[C@@H](O)CC[C@@]32C)[C@@H]2CC(O)[C@H]([C@H](C)CC[C@H](C)C(C)C)[C@@]12C (some centres undefined) | – | zone of inhibition at 25 µg/disc [4]: 1 mm
– | CC(=O)O[C@@H]1C[C@H]2[C@@H]([C@H](O)C=C3C[C@@H](O)CC[C@@]32CO)[C@@H]2CC[C@H]([C@H](C)[C@H]3C[C@]3(C)[C@H](C)C(C)C)[C@@]12C | 2 | –
– | CC(=O)O[C@@H]1C[C@H]2[C@@H]([C@H](O)C=C3C[C@@H](O)CC[C@@]32C)[C@@H]2CC[C@H]([C@H](C)[C@H]3C[C@]3(C)[C@H](C)C(C)C)[C@@]12C | – | zone of inhibition at 20 µg/disc [5]: 2 mm; zone of inhibition at 20 µg/disc [6]: 1 mm
42 | CC(=O)O[C@@H]1C[C@H]2[C@@H](CC=C3C[C@@H](O)CC[C@@]32C)[C@@H]2CC[C@H]([C@H](C)CC(O)[C@H](C)C(C)C)[C@@]12C (some centres undefined) | 3 | –
